Assay results reported in patent publication US20260116920A1, “HUMAN TRANSFERRIN RECEPTOR BINDING PEPTIDE” (PEPTIDREAM INC., priority 2021, published 2026).
Where two headings read alike, the source gives them in different places. Positions of bridges follow the written chain, without caps; N, C: chain ends. Non-standard residues stand in square brackets, D forms with d. Residues, ends and D or L forms follow the SMILES beside them. *: point of attachment. Ala(1-CH2CO2H-4-piperidyl) = N[C@@H](CC1CCN(CC(=O)O)CC1)C(=O)O; Trp(1-CH2COOH) = N[C@@H](Cc1cn(CC(=O)O)c2ccccc12)C(=O)O; Nle(6-morpholino) = N[C@@H](CCCCN1CCOCC1)C(=O)O; Phe(3-COOH) = N[C@@H](Cc1cccc(C(=O)O)c1)C(=O)O; Trp(7-aza) = N[C@@H](Cc1c[nH]c2ncccc12)C(=O)O; NH(CH2CH2O)8Me = COCCOCCOCCOCCOCCOCCOCCOCCN*; NMePhe(3-Cl) = CN[C@@H](Cc1cccc(Cl)c1)C(=O)O; 3Pal(6-NH2) = Nc1ccc(C[C@H](N)C(=O)O)cn1; NMeY = CN[C@@H](Cc1ccc(O)cc1)C(=O)O; PEG4 = NCCOCCOCCOCCOCCC(=O)O; Carboxymethyl = O=C(O)C*; NHCH2CH2OH = OCCN*

Biological target: T1, human transferrin receptor (hTfR) (Homo sapiens, UniProt P02786)
T1 construct: made in house
Assay: Evaluation of molecular interaction between transferrin receptor (hTfR) and peptide using surface plasmon resonance (SPR)
Type: binding
Method in brief: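 Recombinant hTfR dimer (0.5 μM) immobilized on Ni-loaded NTA chip via EDC/NHS, ethanolamine-capped. Peptides at 5–100 nM in HEPES pH 8.0 buffer with 150 mM NaCl, 0.05% Tween 20, 0.1% BSA, 1.0% DMSO, flowed by single-cycle kinetics; KD from least-squares fit of sensorgrams.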

[1] = KD class for binding to hTfR by SPR, peptide with the linker shown in the same line, 'low signal indicates no activity', read-out: SPR
[2] = peptide with linker, surface plasmon resonance, read-out: SPR (KD class for binding to hTfR)
[3] = surface plasmon resonance, binding to hTfR, KD class symbol, read-out: SPR (KD value)

T1 sequence (P02786 89-760 limits assumed): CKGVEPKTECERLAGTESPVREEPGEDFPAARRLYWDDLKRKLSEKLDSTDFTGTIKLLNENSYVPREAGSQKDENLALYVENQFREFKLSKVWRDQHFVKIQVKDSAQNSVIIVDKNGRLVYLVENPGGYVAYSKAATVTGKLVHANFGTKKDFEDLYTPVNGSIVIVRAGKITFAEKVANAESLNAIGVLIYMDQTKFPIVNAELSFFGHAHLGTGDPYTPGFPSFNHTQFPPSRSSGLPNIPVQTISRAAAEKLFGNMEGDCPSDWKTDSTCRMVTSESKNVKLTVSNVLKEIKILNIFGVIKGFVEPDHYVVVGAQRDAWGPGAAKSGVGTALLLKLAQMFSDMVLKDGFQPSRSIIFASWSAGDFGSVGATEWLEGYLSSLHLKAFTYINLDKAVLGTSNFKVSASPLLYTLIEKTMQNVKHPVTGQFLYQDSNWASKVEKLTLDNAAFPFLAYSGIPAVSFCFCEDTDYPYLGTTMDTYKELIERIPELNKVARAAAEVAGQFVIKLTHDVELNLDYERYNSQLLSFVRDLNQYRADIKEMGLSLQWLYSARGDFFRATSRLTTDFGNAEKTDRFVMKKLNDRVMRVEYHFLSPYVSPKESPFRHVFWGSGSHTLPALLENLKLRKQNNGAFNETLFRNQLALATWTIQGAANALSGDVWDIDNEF

Structure (SMILES)	Kd [1]	further results
CC[C@H](C)[C@@H]1NC(=O)[C@H](Cc2ccc(OCC(=O)O)cc2)NC(=O)[C@H](Cc2ccc(O)cc2)NC(=O)[C@H](CC(N)=O)NC(=O)[C@H](Cc2cn(CC(=O)O)c3ccccc23)NC(=O)[C@H](C(C)C)NC(=O)[C@H](Cc2cccc(Cl)c2)N(C)C(=O)[C@H](C(C)C)NC(=O)[C@H](C)NC(=O)CSC[C@@H](C(=O)NCC(=O)N[C@@H](CCCCNC(=O)OC[C@@H]2[C@@H]3CCC#CCC[C@@H]32)C(N)=O)NC(=O)[C@H](Cc2ccc(O)cc2)N(C)C(=O)[C@H](Cc2ccccc2)NC(=O)[C@H](CCCNC(=N)N)NC(=O)[C@H](CCC(=O)NCCOCCOCCOCCOCCOCCOCCOCCOC)NC(=O)[C@H]([C@@H](C)CC)NC1=O [894_3199]	< 1 nM	
CC[C@H](C)[C@@H]1NC(=O)[C@H](Cc2ccc(OCC(=O)O)cc2)NC(=O)[C@H](Cc2ccc(O)cc2)NC(=O)[C@H](CC(N)=O)NC(=O)[C@H](Cc2cn(CC(=O)O)c3ccccc23)NC(=O)[C@H](C(C)C)NC(=O)[C@H](Cc2cccc(Cl)c2)N(C)C(=O)[C@H](C(C)C)NC(=O)[C@H](C)NC(=O)CSC[C@@H](C(=O)NCCOCCOCCOCCOCCC(N)=O)NC(=O)[C@H](Cc2ccc(O)cc2)N(C)C(=O)[C@H](Cc2ccccc2)NC(=O)[C@H](CCC(=O)NCCO)NC(=O)[C@H](CCC(=O)NCCO)NC(=O)[C@H]([C@@H](C)CC)NC1=O [894_0382] ({CH2CO}-AV[NMePhe(3-Cl)]V[Trp(1-CH2COOH)]NYY(Carboxymethyl)IIE(NHCH2CH2OH)E(NHCH2CH2OH)F[NMeY]C[PEG4]-NH2; thioether N-15)	< 1 nM	
CC[C@H](C)[C@@H]1NC(=O)[C@H](Cc2ccc(OC)cc2)NC(=O)[C@H](Cc2ccc(O)cc2)NC(=O)[C@H](CC(N)=O)NC(=O)[C@H](Cc2c[nH]c3ccc(Cl)cc23)NC(=O)[C@H](C(C)C)NC(=O)[C@H](Cc2ccc(F)cc2)N(C)C(=O)[C@H](C(C)C)NC(=O)[C@H](C)NC(=O)CSC[C@@H](C(=O)NCC(=O)N[C@@H](CCCCN=[N+]=[N-])C(N)=O)NC(=O)[C@H](Cc2ccc(O)cc2)N(C)C(=O)[C@H](Cc2ccc(O)cc2)NC(=O)[C@H](CCCNC(=N)N)NC(=O)[C@H](CCCNC(=N)N)NC(=O)[C@H]([C@@H](C)CC)NC1=O [894_3163]	1 to 100 nM	
CC[C@H](C)[C@@H]1NC(=O)[C@H](Cc2ccc(OCC(=O)O)cc2)NC(=O)[C@H](Cc2ccc(O)cc2)NC(=O)[C@H](CC(N)=O)NC(=O)[C@H](Cc2cn(CC(=O)O)c3ccccc23)NC(=O)[C@H](C(C)C)NC(=O)[C@H](Cc2cccc(Cl)c2)N(C)C(=O)[C@H](C(C)C)NC(=O)[C@H](C)NC(=O)CSC[C@@H](C(=O)NCCOCCOCCOCCOCCC(N)=O)NC(=O)[C@H](Cc2ccc(O)cc2)N(C)C(=O)[C@H](Cc2ccccc2)NC(=O)[C@H](CCCNC(=N)N)NC(=O)[C@H](CCCCN2CCOCC2)NC(=O)[C@H]([C@@H](C)CC)NC1=O [894_0388]	< 1 nM	
CC[C@H](C)[C@@H]1NC(=O)[C@H](Cc2ccc(OCC(=O)O)cc2)NC(=O)[C@H](Cc2ccc(O)cc2)NC(=O)[C@H](CC(N)=O)NC(=O)[C@H](Cc2cn(CC(=O)O)c3ccccc23)NC(=O)[C@H](C(C)C)NC(=O)[C@H](Cc2cccc(Cl)c2)N(C)C(=O)[C@H](C(C)C)NC(=O)[C@H](C)NC(=O)CSC[C@@H](C(=O)NCCOCCOCCOCCOCCC(N)=O)NC(=O)[C@H](Cc2ccc(O)cc2)N(C)C(=O)[C@H](Cc2ccccc2)NC(=O)[C@H](CCCNC(=N)N)NC(=O)[C@H](CC2CCN(CC(=O)O)CC2)NC(=O)[C@H]([C@@H](C)CC)NC1=O [894_0386] ({CH2CO}-AV[NMePhe(3-Cl)]V[Trp(1-CH2COOH)]NYY(Carboxymethyl)II[Ala(1-CH2CO2H-4-piperidyl)]RF[NMeY]C[PEG4]-NH2; thioether N-15)	< 1 nM	
CC[C@H](C)[C@@H]1NC(=O)[C@H](Cc2ccc(OC)cc2)NC(=O)[C@H](Cc2ccc(O)cc2)NC(=O)[C@H](CC(N)=O)NC(=O)[C@H](Cc2c[nH]c3ccccc23)N(C)C(=O)[C@H](C(C)C)NC(=O)[C@H](Cc2cccc(C(=O)O)c2)N(C)C(=O)[C@H](C(C)C)NC(=O)[C@H](C)NC(=O)CSC[C@@H](C(=O)NCC(=O)N[C@@H](CCCCN=[N+]=[N-])C(N)=O)NC(=O)[C@H](Cc2ccc(O)cc2)N(C)C(=O)[C@H](Cc2ccccc2)NC(=O)[C@@H](CCCNC(=N)N)NC(=O)[C@H](CCCNC(=N)N)NC(=O)[C@H]([C@@H](C)CC)NC1=O [894_3159]	100 to 1000 nM	
CC[C@H](C)[C@@H]1NC(=O)[C@H](Cc2ccc(OCC(=O)O)cc2)NC(=O)[C@H](Cc2ccc(O)cc2)NC(=O)[C@H](CC(N)=O)NC(=O)[C@H](Cc2c[nH]c3ncccc23)NC(=O)[C@H](C(C)C)NC(=O)[C@H](Cc2cccc(Cl)c2)N(C)C(=O)[C@H](C(C)C)NC(=O)[C@H](C)NC(=O)CSC[C@@H](C(=O)NCCOCCOCCOCCOCCC(N)=O)NC(=O)[C@H](Cc2ccc(O)cc2)N(C)C(=O)[C@H](CCC(=O)NCCOCCOCCOCCOCCOCCOCCOCCOC)NC(=O)[C@H](CCCNC(=N)N)NC(=O)[C@H](CCC(=O)NCCOCCOCCOCCOCCOCCOCCOCCOC)NC(=O)[C@H]([C@@H](C)CC)NC1=O [compound 221] ({CH2CO}-AV[NMePhe(3-Cl)]V[Trp(7-aza)]NYY(Carboxymethyl)IIE(NH(CH2CH2O)8Me)RE(NH(CH2CH2O)8Me)[NMeY]C[PEG4]-NH2; thioether N-15)		Kd [2]: 1 to 100 nM
CC[C@H](C)[C@@H]1NC(=O)[C@H](Cc2ccc(OCC(=O)O)cc2)NC(=O)[C@H](Cc2ccc(N)nc2)NC(=O)[C@H](CC(N)=O)NC(=O)[C@H](Cc2c[nH]c3ncccc23)NC(=O)[C@H](C(C)C)NC(=O)[C@H](Cc2cccc(Cl)c2)N(C)C(=O)[C@H](C(C)C)NC(=O)[C@H](C)NC(=O)CSC[C@@H](C(=O)NCCOCCOCCOCCOCCC(N)=O)NC(=O)[C@H](Cc2ccc(O)cc2)N(C)C(=O)[C@H](Cc2cccc(C(=O)O)c2)NC(=O)[C@H](CCCCN2CCOCC2)NC(=O)[C@H](CCC(=O)NCCOCCOCCOCCOCCOCCOCCOCCOC)NC(=O)[C@H]([C@@H](C)CC)NC1=O [compound 233] ({CH2CO}-AV[NMePhe(3-Cl)]V[Trp(7-aza)]N[3Pal(6-NH2)]Y(Carboxymethyl)IIE(NH(CH2CH2O)8Me)[Nle(6-morpholino)][Phe(3-COOH)][NMeY]C[PEG4]-NH2; thioether N-15)		Kd [2]: 1 to 100 nM
CC[C@H](C)[C@@H]1NC(=O)[C@H](Cc2ccc(OC)cc2)NC(=O)[C@H](Cc2ccc(O)cc2)NC(=O)[C@H](CC(N)=O)NC(=O)[C@H](Cc2c[nH]c3ccccc23)NC(=O)[C@H](C(C)C)NC(=O)[C@H](Cc2ccncc2)N(C)C(=O)[C@H](C(C)C)NC(=O)[C@H](C)NC(=O)CSC[C@@H](C(=O)NCCOCCOCCOCCOCCC(N)=O)NC(=O)[C@H](Cc2ccc(O)cc2)N(C)C(=O)[C@H](Cc2ccccc2)NC(=O)[C@H](CCCNC(=N)N)NC(=O)[C@H](CCCNC(=N)N)NC(=O)[C@H]([C@@H](C)CC)NC1=O [compound 56]		Kd [3]: 1 to 100 nM
CC[C@H](C)[C@@H]1NC(=O)[C@H](Cc2ccc(OCC(=O)O)cc2)NC(=O)[C@H](Cc2ccc(O)cc2)NC(=O)[C@H](CC(N)=O)NC(=O)[C@H](Cc2cn(CC(=O)O)c3ccccc23)NC(=O)[C@H](C(C)C)NC(=O)[C@H](Cc2cccc(Cl)c2)N(C)C(=O)[C@H](C(C)C)NC(=O)[C@H](C)NC(=O)CSC[C@@H](C(=O)NCCOCCOCCOCCOCCC(N)=O)NC(=O)[C@H](Cc2ccc(O)cc2)N(C)C(=O)[C@H](Cc2cccc(C(=O)O)c2)NC(=O)[C@H](CCCNC(=N)N)NC(=O)[C@H](CCC(=O)NCCOCCOCCOCCOCCOCCOCCOCCOC)NC(=O)[C@H]([C@@H](C)CC)NC1=O [compound 103]		Kd [3]: 1 to 100 nM
